These compounds were tested against GluA1o-γ8 (GRIA1o-CACNG8 fusion construct; TARP γ8 dependent AMPA receptor) (Homo sapiens (Human), UniProt P42261+Q8WXS5) (assay: Calcium flux assay (FLIPR), inhibition of glutamate response of GluA1o-γ8 channel). Details: HEK293 cells stably expressing GRIA1o-CACNG8 fusion; 15 μM glutamate; negative log of the IC50 in molar.
Type: cell-based
From the text: This assay was used to test compounds for their ability to inhibit TARP γ8 dependent AMPA receptor activity. The AMPA receptor is a non-selective cation channel activated by glutamate. Ionotropic glutamate receptors normally desensitize too rapidly to allow detectable calcium influx in a FLIPR assay (Strange et al. (2006). “Functional characterisation of homomeric ionotropic glutamate receptors GluR1-GluR6 in a fluorescence-based high throughput screening assay.” Comb Chem High Throughput Screen 9(2): 147-158). But, this desensitization is incomplete, and a substantial steady-state current remains in the sustained presence of glutamate (Cho et al. (2007). “Two families of TARP isoforms that have distinct effects on the kinetic properties of AMPA receptors and synaptic currents.” Neuron 55(6): 890-904). An in vitro assay was used to determine the potency of test compounds as inhibitors of the glutamate response of the channel formed by GluA1o-γ8. To ensure a 1:1 stoichiometry of GluA1o and γ8 subunits in the expressed channel, a fusion of the cDNAs for GRIA1o and CACNG8 was used. Following Shi et al (2009) “The stoichiometry of AMPA receptors and TARPs varies by neuronal cell type.” Neuron 62(5): 633-640), the C-terminus of the cDNA for GRIA1o was fused to the N-terminus of the cDNA for γ8. The linker sequence was QQQQQQQQQQEFAT. Channels expressed with this construct appear to have similar properties to channels formed by co-expression of GRIA1o with an excess of CACNG8 (Shi et al. 2009). A clonal cell line in HEK293 cells stably expressing this construct, with a geneticin selection marker, was generated for use in this assay.
Cell expressing the GRIA1o-CACNG8 fusion construct were grown in a monolayer in 96- or 384-well microtiter plates. They were washed with assay buffer (135 mM NaCl, 4 mM KCl, 3 mM CaCl2, 1 mM MgCl2, 5 mM glucose, 10 mM HEPES, pH 7.4, 300 mOs) using a Biotek EL405 plate washer. The cells were then loaded with a calcium-sensitive dye (Calcium-5 or Calcium-6, Molecular Devices) and the test compounds at a range of concentrations. Calcium flux following the addition of 15 μM glutamate was monitored using a Molecular Devices FLIPR Tetra. The fluorescence in each well was normalized to the fluorescence of negative and positive control wells. The negative control wells had no added compounds, and the positive control wells had been incubated with 10 μM CP465022 (a non-subtype-selective AMPA receptor antagonist) (Lazzaro et al. (2002). “Functional characterization of CP-465,022, a selective, noncompetitive AMPA receptor antagonist.” Neuropharmacology 42(2): 143-153). The responses to glutamate as functions of the test compound concentrations were fitted to a four-parameter logistic function. The fitted parameter corresponding to the midpoint was taken to be the potency of inhibition of the compound. The data in Table 3 below illustrates the observed potentcy for the compounds described herein. pIC50 refers to the negative log of the IC50 in molar.

Sequence of GluA1o-γ8 (GRIA1o-CACNG8 fusion construct; TARP γ8 dependent AMPA receptor) (P42261 other isoform, or with tags, fused parts or gaps): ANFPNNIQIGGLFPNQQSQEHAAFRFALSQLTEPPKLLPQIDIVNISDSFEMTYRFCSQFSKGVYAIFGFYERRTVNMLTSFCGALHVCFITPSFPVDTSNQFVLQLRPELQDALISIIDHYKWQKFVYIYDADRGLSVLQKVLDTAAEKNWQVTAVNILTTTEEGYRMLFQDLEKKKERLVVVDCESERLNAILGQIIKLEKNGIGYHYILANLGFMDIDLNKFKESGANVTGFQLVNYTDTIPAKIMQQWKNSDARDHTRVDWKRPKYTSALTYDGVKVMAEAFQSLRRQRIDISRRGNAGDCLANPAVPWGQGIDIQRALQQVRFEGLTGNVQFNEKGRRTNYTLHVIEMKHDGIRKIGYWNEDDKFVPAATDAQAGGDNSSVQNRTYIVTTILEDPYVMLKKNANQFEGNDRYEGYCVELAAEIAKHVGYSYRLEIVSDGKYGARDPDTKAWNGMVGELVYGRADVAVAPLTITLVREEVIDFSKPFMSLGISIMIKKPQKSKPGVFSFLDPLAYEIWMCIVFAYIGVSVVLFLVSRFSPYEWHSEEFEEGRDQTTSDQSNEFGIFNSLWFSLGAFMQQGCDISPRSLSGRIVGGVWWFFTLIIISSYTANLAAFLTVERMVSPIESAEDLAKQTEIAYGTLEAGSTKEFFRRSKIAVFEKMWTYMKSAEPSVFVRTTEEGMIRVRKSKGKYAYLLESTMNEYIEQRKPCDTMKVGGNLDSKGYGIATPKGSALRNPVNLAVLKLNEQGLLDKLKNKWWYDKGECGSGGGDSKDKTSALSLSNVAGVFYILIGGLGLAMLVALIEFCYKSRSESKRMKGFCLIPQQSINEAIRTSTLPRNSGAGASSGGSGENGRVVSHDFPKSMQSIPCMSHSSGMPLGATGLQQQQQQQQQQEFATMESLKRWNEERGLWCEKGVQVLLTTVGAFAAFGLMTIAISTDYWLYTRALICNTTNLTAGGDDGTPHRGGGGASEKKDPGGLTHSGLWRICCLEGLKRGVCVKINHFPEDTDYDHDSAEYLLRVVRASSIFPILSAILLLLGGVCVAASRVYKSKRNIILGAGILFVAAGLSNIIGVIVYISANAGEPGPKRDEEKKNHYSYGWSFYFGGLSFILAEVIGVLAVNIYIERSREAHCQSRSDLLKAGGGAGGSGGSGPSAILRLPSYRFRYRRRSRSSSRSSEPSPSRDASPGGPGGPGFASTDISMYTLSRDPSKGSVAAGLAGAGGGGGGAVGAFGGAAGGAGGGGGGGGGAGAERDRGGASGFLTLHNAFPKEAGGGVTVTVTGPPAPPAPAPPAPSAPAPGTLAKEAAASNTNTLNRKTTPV

Point of comparison: `CCn1nc2ccc(C(F)(F)F)nc2c1-c1ccc2[nH]c(=O)[nH]c2c1` [Example 4, 5-(2-Ethyl-5-(trifluoromethyl)-2H-pyrazolo[4,3-b]pyridin-3-yl)-1,3-dihydro-2H-benzo[d]imidazol-2-one], pIC50 7.0. Against it:
- Cc1cc(-c2c3nc(C(F)(F)F)ccc3nn2C(F)F)cc2cn[nH]c12 [Example 30, 2-(Difluoromethyl)-3-(7-methyl-1H-indazol-5-yl)-5-(trifluoromethyl)-2H-pyrazolo[4,3-b]pyridine] — higher, 9.2
- O=c1[nH]c2ccc(-c3c4nc(C(F)(F)F)ccc4nn3C3CCCC3)cc2[nH]1 [Example 7, 5-(2-Cyclopentyl-5-(trifluoromethyl)-2H-pyrazolo[4,3-b]pyridin-3-yl)-1,3-dihydro-2H-benzo[d]imidazol-2-one] — higher, 7.8
- Cc1cc(-c2c3nc(C(F)(F)F)ccc3nn2C(F)F)cc2c1NC(=O)C2 [Example 3, 5-[2-(Difluoromethyl)-5-(trifluoromethyl)pyrazolo[4,3-b]pyridin-3-yl]-7-methyl-indolin-2-one] — higher, 9.0
- COCCn1nc2ccc(C(F)(F)F)nc2c1-c1ccc2[nH]ncc2c1 [Example 13, 3-(1H-Indazol-5-yl)-2-(2-methoxyethyl)-5-(trifluoromethyl)-2H-pyrazolo[4,3-b]pyridine] — lower, 6.1
- CC(C)n1nc2ccc(C(F)(F)F)nc2c1-c1cc(Cl)c2c(c1)CC(=O)N2 [Example 22, 7-Chloro-5-(2-isopropyl-5-(trifluoromethyl)-2H-pyrazolo[4,3-b]pyridin-3-yl)indolin-2-one] — higher, 9.6
- O=C1Cc2cc(-c3c4nc(C(F)(F)F)ccc4nn3C(F)F)cc(Cl)c2N1 [Example 29, 7-Chloro-5-(2-(difluoromethyl)-5-(trifluoromethyl)-2H-pyrazolo[4,3-b]pyridin-3-yl)indolin-2-one] — higher, 8.6
- Cc1cc(-c2c3nc(C(F)(F)F)ccc3nn2C(C)C)cc2cn[nH]c12 [Example 23, 2-Isopropyl-3-(7-methyl-1H-indazol-5-yl)-5-(trifluoromethyl)-2H-pyrazolo[4,3-b]pyridine] — higher, 9.6
- FC(F)(F)c1ccc2nn(C3CCC3)c(-c3ccc4[nH]ncc4c3)c2n1 [Example 12, 2-Cyclobutyl-3-(1H-indazol-5-yl)-5-(trifluoromethyl)-2H-pyrazolo[4,3-b]pyridine] — higher, 9.2
- Cc1cc(-c2c3nc(C(F)(F)F)ccc3nn2C2CCCC2)cc2cn[nH]c12 [Example 8, 2-Cyclopentyl-3-(7-methyl-1H-indazol-5-yl)-5-(trifluoromethyl)-2H-pyrazolo[4,3-b]pyridine] — higher, 9.9
- O=C1Cc2cc(-c3c4nc(C(F)(F)F)ccc4nn3C3CCC3)cc(Cl)c2N1 [Example 26, 7-Chloro-5-(2-cyclobutyl-5-(trifluoromethyl)-2H-pyrazolo[4,3-b]pyridin-3-yl)indolin-2-one] — higher, 10.5
- FC(F)(F)c1ccc2nn(-c3ccccc3)c(-c3ccc4[nH]ncc4c3)c2n1 [Example 11, 3-(1H-Indazol-5-yl)-2-phenyl-5-(trifluoromethyl)-2H-pyrazolo[4,3-b]pyridine] — higher, 8.5
- Cc1cc(-c2c3nc(C(F)(F)F)ccc3nn2C(C)C)cc2c1NC(=O)C2 [Example 21, 5-(2-Isopropyl-5-(trifluoromethyl)-2H-pyrazolo[4,3-b]pyridin-3-yl)-7-methylindolin-2-one] — higher, 9.4
- Cc1cc(-c2c3nc(C(F)F)ccc3nn2C(C)C)cc2cn[nH]c12 [Example 34, 5-(Difluoromethyl)-2-isopropyl-3-(7-methyl-1H-indazol-5-yl)-2H-pyrazolo[4,3-b]pyridine] — higher, 10.0
- CCn1nc2ccc(C(F)(F)F)nc2c1-c1cc(C)c2c(c1)CC(=O)N2 [Example 17, 5-(2-Ethyl-5-(trifluoromethyl)-2H-pyrazolo[4,3-b]pyridin-3-yl)-7-methylindolin-2-one] — higher, 8.3
- Cc1cc(-c2c3nccc(C(F)F)c3nn2C(C)C)cc2cn[nH]c12 [Example 38, 7-(Difluoromethyl)-2-isopropyl-3-(7-methyl-1H-indazol-5-yl)pyrazolo[4,3-b]pyridine] — within 0.2 log units, 6.9
- CC(C)n1nc2cccnc2c1-c1cc(Cl)c2[nH]ncc2c1 [Example 39, 3-(7-Chloro-1H-indazol-5-yl)-2-isopropyl-pyrazolo[4,3-b]pyridine] — higher, 7.2
- O=c1[nH]c2ccc(-c3c4nc(C(F)(F)F)ccc4nn3CC3CCC3)cc2[nH]1 [Example 6, 5-(2-(Cyclobutylmethyl)-5-(trifluoromethyl)-2H-pyrazolo[4,3-b]pyridin-3-yl)-1,3-dihydro-2H-benzo[d]imidazol-2-one] — within 0.2 log units, 6.9
- O=c1[nH]c2ccc(-c3c4nc(C(F)(F)F)ccc4nn3-c3ccccc3)cc2[nH]1 [Example 9, 5-(2-Phenyl-5-(trifluoromethyl)-2H-pyrazolo[4,3-b]pyridin-3-yl)-1,3-dihydro-2H-benzo[d]imidazol-2-one] — higher, 8.8

With `CCn1nc2ccc(C(F)(F)F)nc2c1-c1cc(C)c2[nH]ncc2c1` [Example 19, 2-Ethyl-3-(7-methyl-1H-indazol-5-yl)-5-(trifluoromethyl)-2H-pyrazolo[4,3-b]pyridine] the IC50 was 0.794 nM.

From patent US10100045B2, “3-aryl-2H-pyrazolo[4,3-b]pyridine compounds and their use as AMPA receptor modulators” (Janssen Pharmaceutica NV, priority 2016, dated 2018)
